{"source": "patent US20060205669A1", "about": "“G-type peptides and other agents to ameliorate atherosclerosis and other pathologies” (The Regents of the University of California, priority 2004, published 2006)", "key": {"[1]": {"test_system": "ApoE null mice", "assay": "HDL paraoxonase activity in apoE null mice", "assay_type": "in vivo", "settings": "FIG. 16", "description": "Female apoE null mice 4 months of age (n=4 per group) were administered by intraperitoneal injection either scrambled D-4F (a non-active control peptide) or D-4F at 10 μg/mouse or the peptide Ac-KWIYHLTEGSTDLRTEG-NH2 (SEQ ID NO:643) synthesized from L-amino acids (L-ApoM) at 50 μg/mouse. The mice were bled 2 or 6 hours later and their HDL isolated by FPLC and the paraoxonase activity in the HDL determined and plotted on the X-axis. Other 4-month-old female apoE null mice (n=4 per group) were administered by gastric gavage the peptide Ac-KWIYHLTEGSTDLRTEG-NH2 (SEQ ID NO:643) synthesized from L-amino acids (L-ApoM) at 100 μg/mouse (L-ApoM by gavage). The mice were bled 6 hours later and their HDL isolated by FPLC and the paraoxonase activity in the HDL determined and plotted on the X-axis."}, "[2]": {"test_system": "Human aortic endothelial cells", "assay": "Prevention of LDL-induced monocyte chemotactic activity in vitro, co-incubation", "assay_type": "cell-based", "settings": "co-incubation with control human LDL 200 μg protein/ml, overnight; FIG. 1", "description": "FIG. 1 illustrates a comparison of the effect of D-4F (Circulation 2002; 105:290-292) with the effect of an apoJ peptide made from D amino acids (D-J336, Ac-LLEQLNEQFNWVSRLANLTQGE-NH2, SEQ ID NO:13) on the prevention of LDL-induced monocyte chemotactic activity in vitro in a co-incubation. Human aortic endothelial cells were incubated with medium alone (no addition), with control human LDL (200 μg protein/ml) or control human LDL+control human HDL (350 μg HDL protein/ml). D-J336 or D-4F was added to other wells in a concentration range as indicated plus control human LDL (200 μg protein/ml). Following overnight incubation, the supernatants were assayed for monocyte chemotactic activity."}, "[3]": {"test_system": "ApoE null mice", "assay": "Protection against LDL-induced monocyte chemotactic activity by HDL from apo E null mice given oral peptides", "assay_type": "in vivo", "settings": "peptide in drinking water (D-4F 5-50, D-J336 20-50 μg per ml), 24 hrs, murine HDL at 100 μg cholesterol/ml", "description": "FIG. 4 illustrates the effect of oral apoA-1 peptide mimetic and apoJ peptide on HDL protective capacity. ApoE null mice (4 per group) were provided with D-4F (designated as F) at 50, 30, 20, 10, 5 μg per ml of drinking water or apoJ peptide (designated as J) at 50, 30 or 20 μg per ml of drinking water. After 24 hrs blood was collected, plasma fractionated by FPLC and fractions containing LDL (designated as mLDL for murine LDL) and fractions containing HDL (designated as mHDL) were separately pooled and HDL protective capacity against LDL oxidation as determined by LDL-induced monocyte chemotactic activity was determined. For the assay controls the culture wells received no lipoproteins (no additions), mLDL alone (at 200 μg cholesterol/ml), or mLDL+standard normal human HDL (designated as Cont. h HDL, at 350 μg HDL cholesterol/ml).\nFor testing the murine HDL, mLDL together with murine HDL (+F mHDL or +J mHDL) were added to artery wall cell cultures. […] The murine HDL was used at 100 μg cholesterol/ml."}, "[4]": {"test_system": "ApoE null mice", "assay": "Ability of LDL from apoE null mice given oral peptides to induce monocyte chemotactic activity (LDL susceptibility to oxidation)", "assay_type": "in vivo", "settings": "peptide in drinking water, 24 hrs", "description": "FIG. 5 illustrates the effect of oral apo A-1 peptide mimetic and apoJ peptide on LDL susceptibility to oxidation. ApoE null mice (4 per group) were provided, in their drinking water, with D-4F (designated as F) at 50, 30, 20, 10, 5 μg per ml of drinking water or the apoJ peptide (D-J336 made from D amino acids and designated as J) at 50, 30 or 20 μg per ml of drinking water. After 24 hrs blood was collected from the mice shown in FIG. 4, plasma fractionated by FPLC and fractions containing LDL (designated as mLDL for murine LDL) were pooled and LDL susceptibility to oxidation as determined by induction of monocyte chemotactic activity was determined. For the assay controls the culture wells received no lipoproteins (no additions), mLDL alone (at 200 μg cholesterol/ml), or mLDL+standard normal human HDL (designated as Cont. h HDL, 350 μg HDL cholesterol).\nMurine LDL, mLDL, from mice that received the D-4F (F mLDL) or those that received the apoJ peptide (J mLDL) were added to artery wall cell cultures."}, "[5]": {"test_system": "ApoE null mice", "assay": "Plasma paraoxonase (PON1) activity in apoE null mice given oral peptides", "assay_type": "in vivo", "settings": "apoE null mice, 50, 10 or 5 μg per ml drinking water, 24 hrs, FIG. 7", "description": "ApoE null mice (4 per group) were provided with D-4F designated as F at 50, 10, 5 or 0 μg per ml of drinking water or apoJ peptide (D-J336 made from D amino acids and designated as J) at 50, 10 or 5 μg per ml of drinking water. After 24 hrs blood was collected and plasma was assayed for PON1 activity."}, "[6]": {"test_system": "LDL receptor null mice", "assay": "HDL protective capacity in LDL receptor null mice given peptide in drinking water", "assay_type": "in vivo", "settings": "0.25 or 0.5 mg per ml drinking water, 24 or 48 hrs, mouse HDL at 100 μg cholesterol/ml", "description": "D-4F designated as F, or the apoJ peptide made from D amino acids (D-J336, designated as J) was added to the drinking water of LDL receptor null mice (4 per group) at 0.25 or 0.5 mg per ml of drinking water. After 24- or 48-hrs blood was collected from the mice and their HDL was isolated and tested for its ability to protect against LDL-induced monocyte chemotactic activity. Assay controls included culture wells that received no lipoproteins (no addition), or control human LDL alone (designated as LDL, 200 μg cholesterol/ml), or control LDL+control human HDL (designated as +HDL, 350 μg HDL cholesterol). For testing the mouse HDL, the control LDL was added together with mouse HDL (+F HDL or +J HDL) to artery wall cell cultures. The mouse HDL was added at 100 μg cholesterol/ml respectively."}, "[7]": {"test_system": "ApoE null mice", "assay": "Protection against PAPC oxidation by HPODE by HDL from apo E null mice given oral peptides", "assay_type": "in vivo", "settings": "peptide in drinking water, 24 hrs, murine HDL at 100 μg cholesterol/ml", "description": "FIG. 6 illustrates the effect of oral apoA-1 peptide mimetic and apoJ peptide on HDL protective capacity. ApoE null mice (4 per group) were provided with D-4F (designated as F) at 50, 30, 20, 10, 5 μg per ml of drinking water or apoJ peptide (D-J336 made from D amino acids and designated as J) at 50, 30 or 20 μg per ml of drinking water. After 24 hrs blood was collected, plasma fractionated by FPLC and fractions containing HDL (designated as mHDL) were pooled and HDL protective capacity against PAPC oxidation as determined by the induction of monocyte chemotactic activity was determined. For the assay controls the culture wells received no lipoproteins (no additions), the phospholipid PAPC at 20 μg/ml+HPODE, at 1.0 μg/ml, or PAPC+BPODE plus standard normal human HDL (at 350 μg HDL cholesterol/ml and designated as +Cont. h HDL).\nFor testing the murine HDL, PAPC+HPODE together with murine HDL (+F mHDL or +J mHDL) were added to artery wall cell cultures. […] The murine HDL was used at 100 μg cholesterol/ml."}, "[8]": {"test_system": "Human aortic endothelial cells", "assay": "Prevention of LDL-induced monocyte chemotactic activity by pre-treatment (pre-incubation) of artery wall cells", "assay_type": "cell-based", "settings": "6 hrs pre-incubation, D-J336 4, 2, 1 μg/ml vs D-4F 100-12.5 μg/ml, FIG. 2", "description": "FIG. 2 illustrates a comparison of the effect of D-4F with the effect of D-J336 on the prevention of LDL induced monocyte chemotactic activity in a pre-incubation. Human aortic endothelial cells were pre-incubated with D-J336 or D-4F at 4, 2, and 1 μg/ml for DJ336 or 100, 50, 25, and 12.5 μg/ml for D-4F for 6 hrs. The cultures were then washed and were incubated with medium alone (no addition), or with control human LDL (200 μg protein/ml), or with control human LDL+control human HDL (350 μg HDL protein/ml) as assay controls. The wells that were pre-treated with peptides received the control human LDL at 200 μg protein/ml. Following overnight incubation, the supernatants were assayed for monocyte chemotactic activity."}, "[9]": {"test_system": "cynomologous monkeys", "assay": "Monkey HDL and LDL after oral peptide tested for monocyte chemotactic activity in human artery wall cell cultures", "assay_type": "in vivo", "settings": "five milligrams by stomach tube, 6 hours", "description": "Five milligrams of the peptide LAEYHAK (SEQ ID NO: 8) synthesized from all D-amino acids was administered to each of four cynomologous monkeys in 2.0 mL of water by stomach tube and followed with 2.0 mL of water as a wash. Six hours later the monkeys were bled and their plasma fractionated by fast protein liquid chromatography (FPLC) and tested in human artery wall cell cultures."}}, "data": [{"substance": "Ac-KWIYHLTEGSTDLRTEG-NH2 [L-ApoM]", "values": [{"measurement": "HDL paraoxonase activity", "setting": "[1]; gastric gavage 100 μg/mouse, bled 6 hours later", "value": "increased paraoxonase activity"}, {"measurement": "HDL paraoxonase activity", "setting": "[1]; intraperitoneal injection 50 μg/mouse, bled 2 or 6 hours later", "value": "increased paraoxonase activity"}]}, {"substance": "Ac-LLEQLNEQFNWVSRLANLTQGE-NH2 [D-J336]", "values": [{"measurement": "in vitro concentration that prevents LDL-induced monocyte chemotactic activity by human artery wall cells, times less than the concentration required for D-4F", "setting": "[2]", "value": "10 to 25", "unit": "times"}, {"measurement": "HDL protective capacity against LDL oxidation (LDL-induced monocyte chemotactic activity)", "setting": "[3]; FIG. 4", "value": "as active as 350 μg/ml of normal human HDL"}, {"measurement": "HDL protective capacity against LDL oxidation (LDL-induced monocyte chemotactic activity)", "setting": "[3]; FIG. 4, listed as D-J peptide", "value": "as potent as D-4F"}, {"measurement": "HDL protective capacity against LDL oxidation (LDL-induced monocyte chemotactic activity)", "setting": "[3]; FIG. 4, listed as DJ336", "value": "as potent as D4F"}, {"measurement": "rendering LDL resistant to oxidation by human artery wall cells (induction of monocyte chemotactic activity)", "setting": "[4]; FIG. 5", "value": "slightly more potent than D-4F"}, {"measurement": "rendering LDL resistant to oxidation by human artery wall cells (induction of monocyte chemotactic activity)", "setting": "[4]; FIG. 5, listed as DJ336", "value": "slightly more potent than D4F"}, {"measurement": "increasing plasma paraoxonase activity", "setting": "[5]", "value": "at least as potent as D-4F"}, {"measurement": "increasing plasma paraoxonase activity", "setting": "[5]; listed as DJ336", "value": "at least as potent as D4F"}, {"measurement": "HDL protective capacity against LDL-induced monocyte chemotactic activity", "setting": "[6]; FIG. 3", "value": "as active as 350 μg/ml of control human HDL"}, {"measurement": "HDL protective capacity against LDL-induced monocyte chemotactic activity", "setting": "[6]; FIG. 3, listed as DJ335", "value": "essentially as effective as D4F"}, {"measurement": "causing HDL to inhibit oxidation of PAPC by HPODE (generation of monocyte chemotactic activity)", "setting": "[7]; FIG. 6", "value": "as potent as D-4F"}, {"measurement": "causing HDL to inhibit oxidation of PAPC by HPODE (generation of monocyte chemotactic activity)", "setting": "[7]; FIG. 6, listed as DJ336", "value": "as potent as D4F"}, {"measurement": "potency in preventing LDL oxidation by artery wall cells in vitro, times more potent than D-4F", "setting": "[8]", "value": "10 to 25", "unit": "times"}, {"measurement": "potency in preventing LDL oxidation by artery wall cells in vitro, times more potent than D-4F", "setting": "[8]; listed as ApoJ variant peptide", "value": "10-25 times"}]}, {"substance": "LAEYHAK (Synthetic peptide. Can be protected or unprotected as shown in specification.)", "values": [{"measurement": "monocyte chemotactic activity with hLDL plus monkey HDL taken after peptide versus time zero", "setting": "[9]; monkey HDL 50 μg/mL HDL-cholesterol, FIG. 17 panel B", "value": "significantly reduced monocyte chemotactic activity"}, {"measurement": "monocyte chemotactic activity induced by monkey LDL taken after peptide versus time zero", "setting": "[9]; monkey LDL 100 μg/mL LDL-cholesterol, FIG. 17 panel C", "value": "significantly less monocyte chemotactic activity"}]}]}
